Measurements: US20090149432A1, “METHODS FOR ADMINISTERING CORTICOSTEROID FORMULATIONS” (priority 2007, published 2009)
Read-outs that look alike come from different tables or passages of the source.

Legend:
[1] = Plasma budesonide pharmacokinetics in asthmatic children, twice a day nebulization over six weeks; assay type: in vivo, human (asthmatic children); settings: for AUC0-inf (geometric mean): nebulized; for AUC0-inf (geometric mean) / Cmax (geometric mean) / Cmax at 42 days / Cmax / half-life at 42 days / Tmax at 42 days / half-life / Tmax: asthmatic children; for Cmax at 42 days / Cmax / half-life at 42 days / Tmax at 42 days / half-life / Tmax / Tmax at 6 weeks: human, plasma, inhaled; for Cmax at 42 days / Cmax: read-out: Cmax (geometric mean); for half-life at 42 days / half-life: read-out: T1/2 (geometric mean); for Tmax at 42 days / Tmax: read-out: Tmax (geometric mean) (converted); for Tmax at 6 weeks: read-out: Tmax averaged over 6 weeks (converted)
Description: The budesonide was administered twice a day by a nebulizer for six weeks (42 days). In one subset, budesonide was administered at a dose of 0.25 mg. In the other subset, budesonide was administered at a dose of 0.135 mg.
Tmaxs averaged about 4.3 minutes (SD±0.63 minutes) for the two dosage strengths and time of treatment that ranged from zero to six weeks. […] The Cmaxs and AUCs (area under the curve) obtained for the two different dosage strengths were below levels that would induce side effects due to systemic exposure. […] Murphy et al.'s dosing regimen of 1.0 mg twice a day (bid) was the same as that for Pulmicort Respules when the pharmacokinetics of Pulmicort Respules was being assessed by Astrazeneca (Pharmacokinetics section of Pulmicort Respules label insert).

[2] = test system: hypothalamus-pituitary-adrenal (HPA) axis; assay: ACTH-induced plasma cortisol levels in children after six weeks of treatment; assay type: in vivo, human (children); settings: doses of Tables 3 and 4
Source text: An important measure of systemic exposure to corticosteroids is the level of endogenous cortisols in the blood. Excess exogenous corticosteroids will suppress natural production of cortisols due to the suppression of the adrenal cortex. […] Both these changes are statistically insignificant.

CCCC1O[C@@H]2C[C@H]3[C@@H]4CCC5=CC(=O)C=C[C@]5(C)[C@H]4[C@@H](O)C[C@]3(C)[C@]2(C(=O)CO)O1 (some centres unmarked) [Budesonide, budesonide]
AUC0-inf (geometric mean) ([1]; 0.135 mg dose twice a day, Day 42): 22,071 pg-min/mL
AUC0-inf (geometric mean) ([1]; 0.135 mg dose twice a day, First Dose): 10,238 pg-min/mL
change of AUC0-inf ([1]; 0.135 mg dose, by week six of dosing): more than doubled
change of Cmax ([1]; 0.135 mg dose, initial dosing to week six): more than tripling
Cmax (geometric mean) ([1]; 0.135 mg dose, Day 42): 672.1 pg/mL
Cmax (geometric mean) ([1]; 0.135 mg dose, First Dose): 214.4 pg/mL
Cmax to AUC0-inf ratio ([1]; 0.135 mg dose, standard deviation less than approximately 0.006 min^−1): approximately 0.02 min^−1
AUC0-inf (geometric mean) ([1]; 0.25 mg dose twice a day, Day 42): 33,116 pg-min/mL
AUC0-inf (geometric mean) ([1]; 0.25 mg dose twice a day, Day 42, listed as budesonide): about 33,116 pg-min/mL
AUC0-inf (geometric mean) ([1]; 0.25 mg dose twice a day, First Dose): 20,849 pg-min/mL
AUC0-inf (geometric mean) ([1]; 0.25 mg dose twice a day, First Dose, listed as budesonide): about 20,849 pg-min/mL
Cmax to AUC0-inf ratio ([1]; 0.25 mg dose, standard deviation less than approximately 0.007 min^−1): approximately 0.025 min^−1
change of Cmax ([1]; 0.25 mg, after 42 days (six weeks) of dosing): at least double
increase of AUC0-inf, times its value at first dose ([1]; 0.25 mg, repeat dosing for six weeks): about 1.6 times
Cmax at 42 days ([1]; 0.135 mg, Day 42): ~0.672 ng/mL
Cmax ([1]; 0.135 mg, First Dose): ~0.214 ng/mL
Cmax at 42 days ([1]; 0.25 mg, Day 42): 0.746 ng/mL
Cmax ([1]; 0.25 mg, First Dose): 0.321 ng/mL
half-life at 42 days ([1]; 0.135 mg dose, Day 42): 71.3 min
Tmax at 42 days ([1]; 0.135 mg dose, Day 42): 4.4 min
half-life ([1]; 0.135 mg dose, First Dose): 42.1 min
Tmax ([1]; 0.135 mg dose, First Dose): 4.4 min
Tmax at 6 weeks ([1]; 0.135 mg dose): 4.4 min
half-life at 42 days ([1]; 0.25 mg dose, Day 42): 75.7 min
Tmax at 42 days ([1]; 0.25 mg dose, Day 42): 5 min
half-life ([1]; 0.25 mg dose, First Dose): 155 min
Tmax ([1]; 0.25 mg dose, First Dose): 3.3 min
Tmax at 6 weeks ([1]; 0.25 mg dose): 4.1 min
HPA axis suppression [2]: no evidence of hypothalamus-pituitary-adrenal (HPA) axis suppression
